Source: patent publication US20230136075A1, “TREATMENT FOR SEPSIS-INDUCED ORGAN DYSFUNCTION” (The Florey Institute of Neuroscience and Mental Health, priority 2020, published 2023)

Legend:
[1] = test system: patients with septic shock; assay: Randomised, double-blind, placebo-controlled trial of mega-dose vitamin C for septic shock (Example 4); format: in vivo; settings: trial ongoing
Text: A randomised, double-blind, placebo-controlled trial is being conducted to evaluate whether the administration of intravenous mega-dose vitamin C (60 g/day) increases urine output in patients with septic shock admitted to an intensive care unit (ICU).
Patients admitted to the Austin Hospital ICU with the primary diagnosis of septic shock defined according to the Sepsis-3 criteria are screened for eligibility. All the diagnostic criteria of septic shock (based on the SEPSIS-3 criteria) were to be fulfilled simultaneously within the last 24 hours, and vasopressors infused continuously at enrolment. Definition of sepsis is that of suspected or documented infection and an acute increase of ≥2 sequential organ failure assessment (SOFA) points consequent to the infection (a proxy of organ dysfunction). Definition of septic shock are sepsis and need for vasopressor therapy to keep mean arterial pressure (MAP) >65 mmHg for >2 hours and lactate >2 mmol/L, despite adequate fluid resuscitation.
All eligible patients with septic shock are randomised to receive either: • (i) Mega-dose Vitamin C intravenous infusion (sodium ascorbate 30 grams [100 ml] diluted with 150 ml of 5% dextrose infused intravenously over 1 hour followed by sodium ascorbate 30 grams [100 ml] diluted with 150 ml of 5% dextrose infused intravenously over 5 hours); or • (ii) Placebo intravenous infusion administered once (250 ml of 5% dextrose infused intravenously over 1 hour followed by 250 ml of 5% dextrose infused intravenously over 5 hours).
The study infusions are identical in appearance and are supplied in identical 250m1 5% dextrose bags prepared by ICU staff.
Vitamin C levels and arterial blood gas samples are measured at five time points (before loading infusion; after loading dose; 3 hours after the beginning of maintenance infusion; at the end of maintenance infusion; and, 24 hours following the beginning of the study infusion). A single urinary assessment is made of oxalate crystals obtained from testing a 24-hour collection of urine obtained at 24 hours following the beginning of the study infusion. Arterial blood gas samples are also measured to monitor for changes in serum sodium (Na+) and potassium (K+) levels at four time points (before loading infusion [baseline]; after loading dose; 3 hours after the beginning of maintenance infusion; and, at the end of maintenance infusion). The study infusion is stopped if the serum Na+ levels increases >10 mEq/L from the baseline value or absolute serum Na+ levels>160 mEq/L. Information is also collected on fluid balance, intravenous fluid therapy, use of vasopressor drugs and dosage, use of mechanical ventilation and renal replacement therapy and all biochemical and hematological and blood gas analysis variables as well as patient demographics, diagnosis, vital signs and illness severity score, ICU and hospital outcomes (e.g. admission and discharge dates as well as ICU and hospital survival status).
The primary efficacy outcome for this study is the cumulative urine output for 24 consecutive hours following the beginning of the study infusion.
Data analysis is performed on an intention-to-treat basis. Summary statistics are used to describe the clinical data and presented as mean±standard deviation, median with interquartile range (IQR) or percentages as appropriate. Chi-squared analysis with Fisher's exact test (as appropriate), and Student's t-test (Mann Whitney U test for non-normal distributions) are used to compare data between the active treatment group and the control group with statistical significance declared for probability values of less than 0.05. Analysis of the outcome of excluded patients due to other trials etc. is in accordance with CONSORT guidelines.

[2] = test system: septic human patient with severe COVID-19; assay: Mega-dose sodium ascorbate in one septic patient with severe COVID-19 (Example 2); format: in vivo
Text: FIG. 6. Changes in systemic hemodynamics and renal function in response to mega-dose sodium ascorbate (Na Asc) treatment in one septic human patient with a severe case of COVID-19 disease 2019 (n=1). Norepinephrine dose (A), arterial blood oxygen tension (PO2) (filled squares) and inspired oxygen fraction (open circles) (B), mean arterial pressure (C), serum creatinine (D), heart rate (E), and urine output (F) are presented at pre-treatment (time 0), after a 30-min infusion of Na Asc bolus therapy (BT, 30 g), and then at hourly intervals during an infusion of Na Asc for 6.5 hr (4.6 g/hr).
A person was admitted to ICU with severe COVID-19 disease. The patient presented with acute respiratory distress syndrome (ARDS), vasodilatory shock and acute kidney injury, with a temperature of 40° C. The patient was intubated and placed on a ventilator. At noon, their urinary output was 10 ml/hr.
The patient (weighing approximately 80 kg) was administered 30 g of intravenous sodium ascorbate over 30 minutes beginning at 1 pm, followed by an infusion of 30 g sodium ascorbate over the next 6 hours.

`O=C1O[C@H]([C@@H](O)CO)C([O-])=C1O.[Na+]` [sodium ascorbate] was tested, and the body temperature ([1]; 60 g/day iv) was “decreases”, the “oxalate excretion in the urine” value ([1]; 60 g/day iv) was “no evidence of increased oxalate excretion” and the “requirement for vasopressor support” value ([1]; 60 g/day iv) was “decreases”. The serum sodium levels ([1]; 60 g/day iv) was “no evidence of increased oxalate excretion in the urine or increases in serum sodium levels”, the urinary output ([1]; 60 g/day iv) was “increases” and the safety concern signal ([1]; sodium ascorbate 30 g over 1 hour then 30 g over 5 hours iv (60 g/day)) was “no safety concern signal”. It also gave a urinary output ([2]; 1st hour post initiation of treatment, 10 ml/hr prior to treatment) of 175 mL/h, a urinary output ([2]; 2nd hour post initiation of treatment) of 160 mL/h and a urinary output ([2]; 3rd hour post initiation of treatment) of 400 mL/h. For the same compound, the urinary output ([2]; 4th hour post initiation of treatment) was 180 mL/h, the urinary output ([2]; 5th hour post initiation of treatment) was 125 mL/h and the urinary output ([2]; 6th hour post initiation of treatment) was 145 mL/h. The “arterial blood oxygen levels” value ([2]; after 6 hours of sodium ascorbate treatment, 65 pre-treatment, FiO2:40%) was 90 mm Hg, the time to extubation ([2]; after the treatment (intensive care day 15)) was 12 days and the “time to discharge from hospital without any complications” value ([2]; after treatment) was 22 days. For the same compound, the lactate ([2]; during the treatment, decreased from 2.6) was 1.9 mmol/L, the FiO2 ([2]; during the treatment, dropped from 0.45, positive end-expiratory pressure 14 cm H2O) was 0.30 and the heart rate ([2]; during the treatment, dropped from 130) was 105 beats/min. The “time in which blood pressure normalised, vasopressor requirements reduced and renal function improved” value ([2]; human patient with COVID-19, mega dose intravenous vitamin C) was “less than six hours”, the urine flow ([2]; increase during the treatment, from 10) was 400 mL/h and the plasma creatinine ([2]; over the course of sodium ascorbate administration (30 g over 30 minutes then 30 g infusion), 118 before treatment, n=1) was 84 µmol/L. The norepinephrine infusion ([2]; over the course of sodium ascorbate administration, 8 before) was 0 µg/min.
